Molecules are shown by their SMILES. “Also recorded” adds a separate entry of the source. Like-named read-outs stand apart in the source and are kept apart here.

Data set [1] concerns BMDCs. Kind of data set: qPCR of antiviral and inflammatory gene mRNAs in TLR-stimulated BMDCs. The conditions noted are these: for transcription of mRNAs for antiviral cytokines (Ifnb1, Cxcl10): inhibitor 1 hour prior to stimulation. On the technique in general: In qPCR the cycle at which signal appears reflects the starting amount.
In data set [2] the test system is BMDCs. Kind of data set: IFN-β ELISA of BMDC culture supernatants. Type of data set: cell-based, mouse. The conditions noted are these: BMDC supernatant, LPS 6 h; 1 μM. How it is done:
Cell culture supernatants were assayed using a sandwich ELISA kit for mouse IFN-β (PBL Biomedical Laboratories).
In general terms: An ELISA detects its analyte on a solid surface through an enzyme-linked reagent.

The test system of data set [3] is BMDCs. Kind of data set: BMDC viability (Alamar blue). The conditions noted are these: treatment pre-stimulation. Format: cell-based, mouse.
The conditions of data set [4]: mouse, in vivo; cited from earlier work.
Data set [5] concerns BMDCs. Kind of data set: SILAC-based phosphoproteomics of LPS-stimulated BMDCs pre-treated with BI 2536 versus DMSO.
Data set [6] deals with VSV. Type of data set: in vivo, mouse. The conditions noted are these: mice, VSV intra-footpad, 6 hours post-infection.
For data set [7], the system named is BMDCs. Kind of data set: Cell cycle analysis (propidium iodide DNA content, flow cytometry). The conditions noted are these: propidium iodide DNA content after 0, 6, 12 h treatment. Format: cell-based, mouse. Here is the method: Cells were fixed in ethanol, washed, and stained for 30 min at room temperature (RT) with propidium iodide (100 μg/mL) prepared in PBS (calcium- and magnesium-free) supplemented with RNAse A (2 mg/mL; Novagen) and triton X-100 (0.1%). Samples were analyzed for DNA content using an Accuri C6 flow cytometer (Accuri) and data was processed using the FlowJo software (Treestar).
For orientation: A flow cytometer gives signals particle by particle.

Data set [8] concerns primary mouse lung fibroblasts (MLFs). The conditions noted are these: 1 μM.
Data set [9] concerns BMDCs. Nature of the data set: Genome-wide mRNA profiles (microarray) of BMDCs treated with BI 2536 or DMSO before LPS or poly(I:C). Format: cell-based, mouse. The conditions noted are these: for antiviral genes among genes repressed by BI 2536 compared to DMSO: at least 3-fold change.
The subject of data set [10] is conventional DCs (GM-CSF-induced BMDCs). Format: cell-based, mouse.
Data set [11] relates to pDCs (Flt3L-induced BMDCs). Nature of the data set: qPCR and nCounter mRNA measurement in plasmacytoid DCs stimulated with CpG-A, CpG-B or EMCV. The conditions noted are these: 1 μM.
For data set [12] the following is noted: humans (Mross et al., 2008); cited from earlier work.
The test system of data set [13] is IRF3. Nature of the data set: IRF3 nuclear translocation by confocal microscopy, BMDCs on silicon nanowires. Format: cell-based, mouse. Here is the method: (§1) BMDCs were plated on top of etched silicon nanowires (Si NWs) coated with small molecules (Shalek et al., 2010). After 24 hours, cells were stimulated with LPS or poly(I:C), and then fixed in 4% formaldehyde in PBS (RT, 10 min). After fixation, each sample was permeabilized with 0.25% Triton-X 100 in PBS (RT, 10 min), incubated with Image-iT FX Signal Enhancer (RT, 30 min), and then blocked with 10% goat serum and 0.25% Triton-X 100 in PBS (RT, 1 hour). After washing, the samples were placed in 3% IgG-Free BSA & 0.25% Triton-X 100 in PBS that contained primary antibodies against either IRF3 or NF-κB P65 (1:175 dilution) and then rocked overnight at 4° C. The following day, the samples were washed with PBS and then incubated with an Alexa Fluor labeled secondary antibody (1:250 dilution) in 3% IgG-Free BSA & 0.25% Triton-X 100 in PBS (RT, 60 min). After washing with PBS, the samples were counterstained with 300 ng/mL of DAPI in PBS (RT, 30 min). For each experiment, every stimulus-molecule combination was prepared in triplicate. Once fixed, samples were imaged using an upright confocal microscope (Olympus). For each captured image, the nuclear fraction of the fluorescent protein was calculated after identifying nuclear boundaries using DAPI. Finally, distributions for this quantity across different conditions were compared using a one-way ANOVA analysis.

Data set [14] deals with NF-κB p65. Nature of the data set: NF-κB p65 nuclear translocation by confocal microscopy, BMDCs on silicon nanowires. Type of data set: cell-based, mouse. The conditions noted are these: nanowire-mediated delivery; LPS 30 min. Here is the method:
as §1

[15] abbreviates: BMDCs, LPS, increasing amounts of BI 2536, dose-dependent.
The mark [16] stands for this setting: DCs stimulated with LPS, poly(I:C) or Pam3CSK4, 1 μM.

As to `COc1ccc(Br)cc1/C=c1\sc2nc(=O)c(C)nn2c1=O` [Poloxipan], the “transcription of mRNAs for antiviral cytokines (Ifnb1, Cxcl10)” value in [1] (BMDCs, LPS) was “abrogate”.

`CC[C@@H]1C(=O)N(C)c2cnc(Nc3ccc(C(=O)NC4CCN(C)CC4)cc3OC)nc2N1C1CCCC1` [BI 2536]: in data set [2], the “secreted IFN-β (ELISA)” value is “reduced; also recorded: strongly inhibits”. Moreover, the “viability of BMDCs” value in data set [3] is “neither impacted”. The tolerability entry in [4] is “good tolerability”. Further, in data set [5] (LPS), the “phosphorylation levels of Jun family cell cycle regulators (Jund)” value is reported as “decreased”; the “phosphorylation levels of mitotic kinases Nek6 and Nek7” value is “decreased”; the “phosphorylation levels of proteins in the TBK1/IKK-ε/IRF3 axis” value is “unchanged”. For the same compound, in [5] (LPS 30 or 120 min, 1 μM), the “distinct proteins from which the changed phosphopeptides derive” value is given as 413 proteins and the “phosphopeptides with significant (P<0.001) change in level” value is on record as 510 phosphopeptides. Besides, in [6], the “Ifna2 mRNA (type I IFN α2) in popliteal lymph nodes” value was “inhibits” and the “VSV replication in the lymph node (VSV RNA levels)” value is reported as “rapidly increased”. The “antiviral cytokine mRNA (Ifnb1, Cxcl10) in popliteal lymph nodes” value in data set [6] (500 μg i.v. and 50 μg footpad) is listed as “strongly suppressed; also recorded: inhibits”. Besides, the “cell cycle state of BMDCs” value in data set [7] was “neither impacted”. In addition, in data set [8], the “drug-induced toxicity (cell viability, CellTiter-Glo)” value was “not due to drug-induced toxicity” and the “interferon production (Ifnb1 mRNA)” value is “failed to produce interferon”. In addition, in data set [9] (LPS), the “antiviral genes among genes repressed by BI 2536 compared to DMSO” value is recorded as 67/194. The “unique LPS- and/or poly(I:C)-induced genes repressed” value in [9] (downregulated 3-fold upon LPS or poly(I:C) stimulation) is 311 genes. Besides, the “antiviral genes among genes repressed by BI 2536 compared to DMSO” value in data set [9] (poly(I:C), P<1×10^−71, hypergeometric test) is recorded as 99/193. In addition, in data set [10], the “mRNA level of Cxcl1” value is listed as “neither affected”. In data set [10] (1 μM), the “transcription of antiviral genes (Ifnb1 and Cxcl10)” value is reported as “inhibited”. Also, in [11] (6 h), the “CpG-B-specific signature genes (nCounter)” value is recorded as “a minor effect, if any”; the “signature genes induced by CpG-A alone or by both CpG-A and -B (nCounter)” value is “repressed”. Moreover, the “transcription of mRNAs for Ifnb1, Ifna2 and Cxcl10” value in data set [11] (CpG-A stimulation or EMCV infection (MOI 10)) is “nearly abrogated”. In data set [11] (CpG-B), the “Cxcl1 mRNA” value was “moderately increasing” and the “Cxcl10 mRNA” value was “decreased”. Also, the tolerability result in [12] is reported as “good tolerability”. Besides, the IRF3 nuclear translocation entry in [13] (nanowire-mediated delivery, poly(I:C) 2 h or LPS 45 min, dose-dependent) was “inhibited”. Further, in data set [13] (poly(I:C) 2 h, lesser extent than nanowire-mediated delivery), the “IRF3 translocation, delivery in solution” value is “decreased”. Also, the “Cxcl1 expression (qPCR)” value in [1] (BMDCs, LPS, increasing amounts of BI 2536) is “not significantly affected”. In data set [1] (setting [15]), the “Cxcl10 mRNA level (qPCR)” value was “reduced” and the “Ifnb1 mRNA level (qPCR)” value is “reduced”. In addition, in data set [1] (setting [16]), the “expression of 12 well-studied antiviral genes (qPCR)” value is reported as “strongly inhibited” and the “inflammatory gene expression (qPCR)” value was “remained largely unaffected”. For the same compound, in [14], the “NF-κB p65 localization” value is “did not affect”.

Take `COc1cc2ncn(-c3cc(OCc4ccccc4C(F)(F)F)c(C(N)=O)s3)c2cc1OC` [5-(5,6-Dimethoxy-1H-benzimidazol-1-yl)-3-[[2-(trifluoromethyl)phenyl]methoxy]-2-thiophenecarboxamide]: the “transcription of mRNAs for antiviral cytokines (Ifnb1, Cxcl10)” value in data set [1] (BMDCs, LPS) is “abrogate”.

The record behind these values is patent publication US20180289709A1, “METHODS OF TREATING INFLAMMATION” (priority 2010, published 2018).
